Patent publication US6822146B2, “Sulfonylurea-tolerant sunflower line M7” (priority 2000, dated 2004)

Columns and labels:
M5M7 = experiment: Test B greenhouse phytotoxicity, M5M7; assay type: in vivo, sunflower; conditions: in vivo
Procedure, shortened: (§1)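 Formulated ALS-inhibiting herbicides sprayed post-emergence at the 4-leaf stage on homozygous mutant sunflower inbreds (M5 maintainers and BC4 male-sterile back-crosses) in the greenhouse, at rates commonly used in registered crops. Two replicates; crop injury rated as % phytotoxicity, 0% meaning no injury.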

Orobanche cumana = experiment: Test D control of Orobanche cumana in resistant sunflower; assay type: in vivo
Description: The purpose of this test was to evaluate the efficacy of tribenuron-methyl to control Orobanche cumana before and after crop emergence from the soil. Various herbicide treatments were evaluated using six replications of each treatment. Treatments investigated the following modes of application: seed coating, pre-emergence soil incorporation, bare-ground pre-emergence broadcast application, and post-emergence broadcast application. All herbicide treatments used formulated herbicide compositions.
For seed coating treatments, 3 mg of Orobanche cumana seeds were added to each pot containing a growing mixture of 60% dry loamy soil, 20% sand and 20% of peat, the growing mixture having an organic matter content of 4.2% and a pH of 8.05. The pots were placed in plastic trays and watered to the extent of 25% of soil weight. Pots were kept in a greenhouse for 8 to 10 days at about 24° C. during the day and 20° C. at night. Eight seeds of BC4-M5M12 sunflower resistant mutant were sown manually in the pots contaminated with Orobanche, at the end of the incubation period of the parasitic weed seeds.
Seeds were first coated using a table-top laboratory fluid bed equipped with a coating device (“Strea 1 Aerocoater” made by Niro Aeromatic, Haupstrasse 145, CH-4416 Bubendorf, Switzerland) and a coating solution containing about 23% Sepiret 8330® (coating composition sold by Seppic, 75 quai d'Orsay Paris 75321 cedex 07 France) and 77% water at the rate of 3 L/100 Kg of seeds. After coating, the seeds were dried in a fluid bed drier at 35° C. […] The coated seeds were then dried at ambient temperature and stored until sowing.
The soil was then thoroughly mixed by hand and dispensed into the pots. The quantities of tribenuron-methyl used in these treatments are expressed in g a.i./ha based on the soil volume and pot dimensions. The quantities applied were 11.25 and 22.5 g a.i./ha.
The effect of the various treatments was evaluated 35 days after sowing. The sunflower roots were cleaned by washing in water, and the presence of Orobanche nodules was determined visually and by weighing root wet mass in comparison to check plants free of Orobanche infestation. […] The nodules caused by Orobanche increased root weight, and a correlation (r=0.7) was found between visual scores and weight measurements. Thus the weighing technique could be used to corroborate visual efficacy scorings. Orobanche emergence was also scored but found to be less useful to evaluate treatment efficiency at the evaluation timing of this test.

[1] = tested on: homozygous progeny of the three mutant sources; assay type: in vivo, sunflower; conditions: Test B application rates, post-emergence
Procedure, shortened: as §1

BC4-M5M11 = experiment: Test B greenhouse phytotoxicity, BC4-M5M11; assay type: in vivo, sunflower; conditions: in vivo
Procedure, shortened: as §1

BC4-M5M12 = experiment: Test B greenhouse phytotoxicity, BC4-M5M12; assay type: in vivo, sunflower; conditions: in vivo
Procedure, shortened: as §1

BC4-M5M7 = experiment: Test B greenhouse phytotoxicity, BC4-M5M7; assay type: in vivo, sunflower; conditions: in vivo
Procedure, shortened: as §1

'M2' seeds = experiment: Hydroponic selection of M2 seeds with sulfonylurea herbicides; assay type: in vivo, sunflower; conditions: hydroponic beds
Description: ‘M2’ seeds were seeded in individual hydroponic beds described as “Large-Scale Hydroponic Screening System” in U.S. Pat. No. 5,084,082 and treated with sulfonylurea herbicides. For each treatment, 10,000 seeds were added per bed. […] Most of the treatments used thifensulfuron-methyl at 20, 40 or 50 μg/L or rimsulfuron at 40 or 80 μg/L. Five plants showing resistance to sulfonylurea herbicides were found during various selection experiments; these are identified in Table 2.

## COC(=O)c1ccccc1S(=O)(=O)NC(=O)N(C)c1nc(C)nc(OC)n1 [Tribenuron-methyl, tribenuron-methyl]
M5M7
  Maximum Phytotoxicity: 12.5%
Orobanche cumana; post-emergence broadcast spray 2.25 g a.i./ha
  Control: 63%
Orobanche cumana; pre-emergence broadcast spray 11.25 g a.i./ha + post-emergence broadcast spray 11.25 g a.i./ha
  Control: 78%
Orobanche cumana; pre-emergence broadcast spray 22.5 g a.i./ha
  Control: 40%
Orobanche cumana; pre-emergence soil incorporation 11.25 g a.i./ha
  Control: 55%
Orobanche cumana; pre-emergence soil incorporation 22.5 g a.i./ha
  Control: 72%
Orobanche cumana; seed coating 0.00001 mg a.i./g + post-emergence broadcast spray 2.25 g a.i./ha
  Control: 63%
Orobanche cumana; seed coating 0.00001 mg a.i./g + post-emergence broadcast spray 11.25 g a.i./ha
  Control: 70%
Orobanche cumana; seed coating 0.00001 mg a.i./g, host BC4-M5M12, 35 days after sowing
  Control: 8%
Orobanche cumana; seed coating 0.1 mg a.i./g + post-emergence broadcast spray 2.25 g a.i./ha
  Control: 85%
Orobanche cumana; seed coating 0.1 mg a.i./g + post-emergence broadcast spray 11.25 g a.i./ha
  Control: 80%
Orobanche cumana; seed coating 0.1 mg a.i./g, host BC4-M5M12, 35 days after sowing
  Control: 37%
Orobanche cumana; seed coating 10 mg a.i./g + post-emergence broadcast spray 2.25 g a.i./ha
  Control: 82%
Orobanche cumana; seed coating 10 mg a.i./g + post-emergence broadcast spray 11.25 g a.i./ha
  Control: 89%
[1]
  tolerance of the mutants: good tolerance
BC4-M5M11
  Maximum Phytotoxicity: 17.5%
BC4-M5M12
  Maximum Phytotoxicity: 20%
BC4-M5M7
  Maximum Phytotoxicity: 10%

## COC(=O)c1cccc(C)c1S(=O)(=O)NC(=O)Nc1nc(OCC(F)(F)F)nc(N(C)C)n1 [Triflusulfuron-methyl, triflusulfuron-methyl]
'M2' seeds
  suitability as selection agent: insufficiently active on sunflower
